Patent US6962930B1, “Compounds, compositions and method suitable for amelioration of withdrawal syndromes and withdrawal-induced brain damage” (Lohocla Research Corporation, priority 1997, dated 2005)

Legend:
[1] = system: audiogenic seizures in DBA/2J mice; assay: Audiogenic seizures; type: in vivo; conditions: 100 or 500 mg/kg, about 90 minutes before stimulus
Protocol: Male DBA/2J mice (20–22 days old; 8–12 g) were used to evaluate the effects of DCUK-OMe in an animal model of partial seizures. A description of this test for audiogenic seizures can be found in Engstrom, F. L., et al., “SEIZURE SUSCEPTIBILITY IN DBA AND C57 MICE: THE EFFECTS OF VARIOUS CONVULSANTS,” Epilepsia., 29 389–395 (1988), the relevant disclosures of which are incorporated herein by reference. Mice were injected with either vehicle (5% Tween-80, 20% Intralipid) or 100 mg/kg or 500 mg/kg DCUK-OMe suspended in the vehicle about 90 minutes before being placed into a testing chamber having a size of about 6 inches (about 15.2 cm) diameter×about 20 inches (about 50.8 cm) height enclosed in a sound-attenuated box. After a 15–20 second habituation period, a high-intensity auditory stimulus (ringing doorbell, 12–16 kHz, 109 db) was activated for 30 seconds or until tonic hindlimb extension occurred. The seizure response in these mice was characterized by a progression of a wild running behavior, followed by loss of righting and clonus of the forelimbs, followed by tonic hindlimb extension, and finally respiratory arrest. The number of mice showing each response was recorded. […] Data were analyzed by the Fisher Exact Test. In FIG. 8, * denotes P<0.05 compared to vehicle injected mice.

Swiss-Webster mice = assay: Ethanol-induced loss of righting reflex; type: in vivo; conditions: i.p. 30 minutes before ethanol; DCUK-OMe 100 mg/kg, DZP 1 mg/kg
Protocol: Swiss-Webster mice were pretreated (i.p.) with 100 mg/kg DCUK-OMe or 1 mg/kg diazepam (DZP) (in 5% Tween-80, 20% Intralipid) 30 minutes before receiving an i.p. administration of ethanol (either 2.3 or 3.2 g/kg, 20% v/v in saline.). The duration of the ethanol-induced loss of righting reflex (defined as the inability of the mouse to right itself when placed on its back in a trough) was measured. […] Since withdrawal signs are many times evident in individuals whose blood ethanol levels are dropping but are far from zero, the DCUK compounds would have an advantage over DZP in that the CNS depressant effects of ethanol would not be accentuated by DCUK compounds if the DCUK compounds are used in an alcohol-intoxicated individual.

[2] = molecular target: T1, NR1a/NR2B recombinant receptors (Homo sapiens, UniProt Q05586); assay: NMDA-induced currents in oocytes expressing NR1a/NR2B; type: cell-based; conditions: 100 μM NMDA, 50 μM DCUKA, increasing glycine
T1 construct: expressed in transfected cells; host or cells: Xenopus laevis oocytes, nuclear cDNA injection
Protocol: (§1) Oocytes were obtained from Xenopus laevis frogs (Nasco or Xenopus I) kept in aquarium tanks at 19–21° C., on a 12 hr light/dark cycle. Mature females were anesthetized by immersion for approximately 30 min in a 0.12% 3-aminobenzoic acid ethyl ester solution, a small incision was made in the abdominal wall and a piece of ovary was removed and placed in Modified Barth's solution (MBS; in mM) containing 88 NaCl, 1 KCl, 10 HEPES, 0.82 MgSO4, 2.4 NaHCO3, 0.91 CaCl2, 0.33 Ca(NO3)2 (pH 7.5). To facilitate manual dissection of oocytes, a section of ovary was transferred from MBS to a hypertonic buffer containing 108 mM NaCl, 2 mM KCl, 2 mM EDTA, 10 mM HEPES, pH 7.5 and theca and epithelial layers of mature oocytes (stages V and VI) were removed with surgical forceps. The follicular layer was removed by a 10 min immersion in 0.5 mg/ml of collagenase in buffer containing 83 mM NaCl, 2 mM KCl, 1 mM MgCl2 and 5 mM HEPES.
(§2) Human NR1a, NR2A and NR2B cDNAs in pCDNA-1Amp were transformed and amplified in XL-1 Blue cells and purified with the MaxPrep Qiagen kit. Oocytes were injected with cDNA into the nucleus in the following concentrations: NR1a/2A cDNAs 0.75 ng/30 nl 1:1 ratio, NR1a/2B cDNAs 3.0 ng/30 nl: 1:1 ratio. Injections were made with micropipettes (10 μm tip diameter) connected to a Drummond micropipettor attached to a micromanipulator. After injection, oocytes were individually placed in wells of 96-well microtiter plates containing incubation medium (MBS supplemented with 10 mg/l streptomycin, 10,000 U/l penicillin G, 50 mg/l gentamicin, 2 mM sodium pyruvate, 0.5 mM theophylline) that had been sterilized by passage through a […]. Oocytes were incubated at 19° C. for 2 to 4 days after injection.
(§3) Oocytes were placed in a rectangular chamber (approximately […]) and perfused (2 ml/min) with frog Ringer (in mM) containing 115 NaCl, 2.5 KCl, 1.8 CaCl2, 10 HEPES (pH 7.2). […] Control responses were always measured before and after addition of the DCUKA. […] Data are expressed as the % inhibition of the agonist response obtained in the absence of the drug.

[3] = molecular target: T2, NR1a/NR2B recombinant receptors (Homo sapiens, UniProt Q05586+Q13224); assay: as above; type: cell-based; conditions: 100 μM NMDA, 0.3 μM glycine, oocytes; read-out: IC50, inhibition of NMDA-induced currents
T2 construct: expressed in transfected cells; host or cells: Xenopus laevis oocytes, nuclear cDNA injection
Protocol: as §1, §2, §3

Structure (SMILES) | frequency of clonic audiogenic seizures [1] | duration of ethanol-induced loss of righting reflex (LORR) (Swiss-Webster mice) | reversal by glycine of inhibition of NMDA-induced currents [2] | IC50 [3]
COC(=O)c1cc(NC(=O)N(c2ccccc2)c2ccccc2)c2c(Cl)cc(Cl)cc2n1 [DCUK-OMe, (N,N-diphenyl)-4-ureido-5,7-dichloro-2-carboxy-quinoline methyl ester] | suppression of audiogenic seizures | no significant enhancement |  | 
O=C(O)c1cc(NC(=O)N(c2ccccc2)c2ccccc2)c2c(Cl)cc(Cl)cc2n1 [DCUKA, (N,N-diphenyl)-4-ureido-5,7-dichloro-2-carboxy-quinoline] |  |  | completely reversed at 10 μM glycine | 20.7 µM
